{
  "source": "patent US6759385B1",
  "about": "“Methods to treat undesirable immune responses” (Regents of the University of Minnesota, priority 1997, dated 2004)",
  "key": {"[1]": {"system": "CD8+ depleted spleen cells", "assay": "Lymphocyte proliferation assay, CD8+ depleted spleen cells of IL-4 KO mice", "format": "cell-based, mouse", "conditions": "IL-4 KO mice immunized with TAChR, 10 μg/ml peptide", "method": "Lymphocyte Proliferation Assay. Two weeks after the last immunization, spleen cells (Bellone et al., 1991) were obtained from three identically treated IL-4 KO mice. The cells were pooled and depleted them in CD8^+ cells using paramagnetic beads and rat anti-mouse CD8^+ antibody (Pharmingen, San Diego, Calif.). The cells were suspended in RPMI-1640 (Gibco, Grand Island, N.Y.) supplemented with 10% heat inactivated fetal calf serum (Gibco), 50 μM 2-mercaptoethanol, 1 mM L-glutamine, 10 mM Hepes, 1 mM sodium pyruvate, 100 U/ml penicillin and 100 μg/ml streptomycin (×10^6 cells/ml). The cells were seeded in triplicate in 96 flat-bottom well plates (200 μl/well). One of the following antigens or stimulants was added: 10 μg/ml phytohemoagglutinine (PHA) (Sigma); 10 μg/ml TAChR; the pools of overlapping peptides spanning the α, β, γ, or δ subunit sequences (5 μg/ml) of each peptide); and 10 μg/ml of the individual a subunit peptides. Controls were triplicate wells cultivated without any antigen, or with or a 20-residue control peptide synthesized by the same method, unrelated to the TAChR sequence (10 μg). After four days the cells were labeled for 16 hours with ^3H-thymidine (1 μCi per well, specific activity 6.7 Ci/mmol, Dupont, Boston, Mass.), and harvested (Titertek, Skatron, Sterling, Va.). The ^3H-thymidine incorporation was measured by liquid scintillation."}, "serum anti-TAChR Ab": {"system": "serum anti-TAChR Ab", "assay": "Anti-TAChR IgG and IgG1 radioimmunoprecipitation assay (Example IV)", "format": "in vivo, mouse", "method": "Anti-TAChR Ab assay. Sera was obtained from each mouse after each clinical testing and at the end of the observation period (12 weeks after beginning of the TAChR immunization). The serum concentration of anti-TAChR IgG and IgGI was determined by radioimmunoprecipitation assay, using TAChR solubilized in Triton X-100 and labeled by the binding of ^125I-α-BTX (Bellone et al., 1991a). As a secondary Ab, either rabbit anti-mouse IgG produced, or goat anti-mouse IgG1 (Sigma, St. Louis, Mo.), was used. The anti-TAChR Ab concentration is expressed as μM precipitated ^125I-α-BTX binding sites.\nTwo types of experiments were carried out. In one of them the total anti-TAChR Ab in the sera of individual mice, obtained 8, 10 and 12 weeks after the first TAChR immunization, was determined. In the other, the anti-TAChR IgG1 concentration was determined, as well as the total anti-TAChR IgG concentration, in sera obtained at the end of the observation period. For this second assay pooled sera from five mice that had received identical treatments was used."}, "[2]": {"system": "serum anti-TAChR antibody", "assay": "Anti-AChR antibody assay by RIPA (Example I)", "format": "in vivo, mouse", "source_text": "Sera was obtained from the mice after each clinical testing. […] The antibody concentration is expressed as μM precipitated ^125I-αBTX."}, "[3]": {"system": "CD8+ depleted spleen cells", "assay": "Cytokine secretion in response to TAChR by CD8+ depleted spleen cells (Example IV)", "format": "cell-based, mouse", "conditions": "s.c. 200 μg/injection, 72 hours", "method": "Cytokine secretion in response to TAChR by spleen CD4^+ cells in vitro. Five to seven days after the last immunization, spleen cells of three identically treated mice were pooled, and depleted them of CD8^+ cells using paramagnetic beads and rat anti-mouse CD8^+ Ab (Pharmingen, San Diego, Calif.), following the manufacturer's instructions. The CD8^+ depleted, CD4^+ enriched cells were cultured with 10 μg/ml TAChR, or without any stimulus. 24 well plates were used, and duplicate cultures prepared. The supernatants were harvested after 72 hours, and the concentrations of IFN-γ, IL-4 and IL-10 determined in duplicate samples by capture ELISA using anti-INF-γ, anti-IL-4, anti-IL-10 Ab, and recombinant INF-γ, IL-4 and IL-10 (Pharmingen) as standards, and following the manufacturer's instructions."}, "[4]": {"system": "EMG in IL-4 KO mice immunized with TAChR", "assay": "Transfer of CD4+ cells from peptide-treated B6 mice into IL-4 KO mice, EMG", "format": "in vivo, mouse", "conditions": "cells three times, three TAChR immunizations, 14 weeks", "method": "CD4^+ cells from wild type B6 mice that sniffed TACBR CD4^+ epitopes protect IL-4 KO R6 mice from development of EMG. Spleen CD4^+ cells were purified from wild type B6 mice that had sniffed a pool of the AChR a subunit peptide epitopes α50-169, α81-200 and α361-380, or peptide-free PBS (sham-treated). 10×10^6 CD4^+ cells from peptide-treated or sham-treated B6 mice to IL-4 KO B6 mice were administered i.v. (blue arrowhead in FIG. 25), just prior to a single immunization with TAChR (red arrowhead in FIG. 25). The strength of the mice was measured every 2 weeks, for 20 weeks after the TAChR immunization (FIG. 25). […] The lesser frequency of EMG as compared to the experiments described above is likely due to the use of a single immunizing injection of TAChR, or to variability in the susceptibility to EMG in different batch of IL-4 KO mice, similar to that described in other mouse strains.\nAll IL-4 KO mice treated with CD4^+ cells from sham-treated B6 donors developed EMG from week four onwards (FIG. 26). […] By week 10 (i.e., two weeks after the second TAChR immunization). […]"}, "[5]": {"conditions": "s.c. 200 μg, pooled sera of five mice"}},
  "note": "Several values for one entry are separate records, joined by “and”; a condition that tells them apart may be missing. Equal values may be shown once.",
  "data": [
    {"substance": "peptide Tα150-169: synthetic peptide corresponding to residues 150-169 of the TAChR α subunit (TYDGTKVSISPESDRPDLST; UniProt P02710 174-193, looked up, fragment)", "values": [
      {"measurement": "recognition of individual peptide by cells from sham-treated mice", "setting": "[1]", "result": "recognized strongly"},
      {"measurement": "reduction of anti-TAChR IgG1", "setting": "serum anti-TAChR Ab; 200 μg, p<0.008", "result": "very modest reduction"},
      {"measurement": "anti-TAChR Ab concentrations compared with sham-treated groups", "setting": "serum anti-TAChR Ab; at 12 weeks, s.c. prevention protocol", "result": "significantly and substantially lower"},
      {"measurement": "IgG1 anti-TAChR", "setting": "serum anti-TAChR Ab; [5]", "result": "0.22 ± 0.005 µM and 0.27 ± 0.01 µM"},
      {"measurement": "Total IgG anti-TAChR", "setting": "serum anti-TAChR Ab; [5]", "result": "0.47 ± 0.01 µM and 0.28 ± 0.015 µM"},
      {"measurement": "serum anti-TAChR antibody concentration compared with sham-treated", "setting": "[2]; as early as 4 weeks after first TAChR immunization", "result": "significantly lower concentrations"},
      {"measurement": "serum anti-TAChR antibody concentration", "setting": "[2]; at ten weeks, nasal protocol B, μM precipitated 125I-αBTX", "result": "5.5 ± 1.5", "unit": "µM"},
      {"measurement": "TAChR-induced IFN-γ secretion", "setting": "[3]", "result": "did not cause increased"},
      {"measurement": "TAChR-induced IL-4 secretion", "setting": "[3]", "result": "significant increase"},
      {"measurement": "TAChR-induced IL-10 secretion", "setting": "[3]", "result": "in one of the two cultures tested"},
      {"measurement": "recipients that developed EMG", "setting": "[4]", "result": "Only one mouse"}
    ]}
  ]
}
